{"source": "patent US20090099094A1", "about": "“Use of Somatostatin Agonists to Treat Medullary Thyroid Carcinoma” (priority 2007, published 2009)", "key": {"SSTR1": {"molecular_target": "SSTR1 (Homo sapiens, UniProt P30872)", "sequence (P30872 whole entry)": "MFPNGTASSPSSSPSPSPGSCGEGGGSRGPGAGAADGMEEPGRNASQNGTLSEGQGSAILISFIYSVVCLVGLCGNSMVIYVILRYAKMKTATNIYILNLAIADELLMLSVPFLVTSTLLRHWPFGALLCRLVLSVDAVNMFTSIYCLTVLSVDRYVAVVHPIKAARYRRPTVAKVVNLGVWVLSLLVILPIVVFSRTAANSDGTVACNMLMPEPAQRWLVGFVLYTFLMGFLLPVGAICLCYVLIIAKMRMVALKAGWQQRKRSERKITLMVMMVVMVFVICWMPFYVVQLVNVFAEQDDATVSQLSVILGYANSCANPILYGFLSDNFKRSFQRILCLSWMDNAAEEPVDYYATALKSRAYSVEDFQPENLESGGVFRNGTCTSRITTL", "experiment": "SSTR receptor binding affinity (Ki), SSTR1", "conditions": "read-out: SSTR Specificity Ki SSTR1"}, "SSTR4": {"molecular_target": "SSTR4 (Homo sapiens, UniProt P31391)", "sequence (P31391 whole entry)": "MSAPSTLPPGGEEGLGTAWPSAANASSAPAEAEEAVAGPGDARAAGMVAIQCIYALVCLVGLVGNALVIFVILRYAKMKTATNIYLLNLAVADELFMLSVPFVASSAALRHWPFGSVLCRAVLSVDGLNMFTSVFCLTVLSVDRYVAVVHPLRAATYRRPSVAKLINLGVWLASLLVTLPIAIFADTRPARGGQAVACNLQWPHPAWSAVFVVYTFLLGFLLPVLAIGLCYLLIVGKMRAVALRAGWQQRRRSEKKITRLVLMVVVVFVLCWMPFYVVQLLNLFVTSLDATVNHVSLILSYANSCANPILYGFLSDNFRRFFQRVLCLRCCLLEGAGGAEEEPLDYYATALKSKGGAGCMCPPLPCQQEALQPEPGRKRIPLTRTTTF", "experiment": "SSTR receptor binding affinity (Ki), SSTR4", "conditions": "read-out: SSTR Specificity Ki SSTR4"}, "SSTR3": {"molecular_target": "SSTR3 (Homo sapiens, UniProt P32745)", "sequence (P32745 whole entry)": "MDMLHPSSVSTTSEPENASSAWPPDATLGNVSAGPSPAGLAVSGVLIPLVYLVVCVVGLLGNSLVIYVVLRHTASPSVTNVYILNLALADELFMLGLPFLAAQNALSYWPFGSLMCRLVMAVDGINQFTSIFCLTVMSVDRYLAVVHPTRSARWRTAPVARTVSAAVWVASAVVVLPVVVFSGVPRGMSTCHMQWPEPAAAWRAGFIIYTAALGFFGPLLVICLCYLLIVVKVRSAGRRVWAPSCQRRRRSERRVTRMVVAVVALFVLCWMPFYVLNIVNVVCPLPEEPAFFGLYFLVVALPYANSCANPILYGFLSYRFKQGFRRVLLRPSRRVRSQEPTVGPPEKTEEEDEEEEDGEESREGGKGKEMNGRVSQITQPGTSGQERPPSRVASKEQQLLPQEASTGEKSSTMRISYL", "experiment": "SSTR receptor binding affinity (Ki), SSTR3", "conditions": "read-out: SSTR Specificity Ki SSTR3"}, "[1]": {"test_system": "medullary thyroid carcinoma primary cultures", "experiment": "Calcitonin secretion by MTC primary cultures (IRMA)", "assay_type": "cell-based, human", "conditions": "10^−8 M, six hours", "method": "Primary cultured cells from 18 selected MTC samples were incubated in ninety six well plates for six hours with each SSTR agonist at 10^−8 M. Control cells were treated with vehicle solution. Calcitonin levels in the conditioned medium were measured by immunoradiometric assay (IRMA) among eight replicates in the conditioned medium from treated and untreated (control) primary cultured cells. […] Data are expressed as the mean±SE percent hormone secretion inhibition vs. untreated control cells. *P<0.05 and **P<0.01 vs. control.\n(§1) Tissue samples were surgically removed in accordance with the guidelines of the local comnmittees on human research. Thyroid tissue samples were obtained under sterile conditions and immediately minced in RPMI 1640 tissue culture medium. Tissues were incubated with 0.25% trypsin overnight at 4° C. and then dissociated using 0.35% collagenase (Sigma, Milano, ITALY) and 1% trypsin at 37° C. for sixty minutes. Cell suspensions were filtered through double layers of gaus(e and washed twice with serum-free F-12 Ham's Nutrient Modified Medium (F-12; Euroclone Ltd, Wetherby, UNITED KINGDOM). Tumor cells were re-suspended in F-12 with 10% fetal bovine serum and antibiotics, seeded in ninety-six well culture plates (˜2×10^4 cells/well) and incubated at 37° C. in a humidified atmosphere of 5% CO2 and 95% air according to known procedures (Zatelli, M. C. et al., Endocrinology, 2005, 146:2692-8). Approximately twenty-four hours later, the prepared cells were treated with the selected somatostatin agonist and were monitored for hormone secretion and overall viability. Informed consent of the patients was obtained for disclosing clinical investigation and performing the in vitro study.\nCalcitonin levels were measured in a conditioned medium from treated and untreated primary cultured cells with the calcitonin-U.S.-IRMA® kit (Biosource Europe, Nivelles, BELGIUM) after a six hour treatment with […] of the selected somatostatin analogs. The intra- and inter-assay variation coefficients were 1.9-2.7% and 1.9-3.3%, respectively. The detection limit was 0.8 pg/ml. Hormone assays were performed in duplicate of conditioned medium from treated cells. Results were obtained by determining the mean value among eight replicates.\nIn order to investigate the effects of somatostatin analogs on hormone secretion, calcitonin and CgA levels were measured in conditioned media collected from primary cultures derived from the selected eighteen medullary thyroid carcinoma treated with or without each somatostatin analog at 10^−8M for six hours.\nAccording to this criterion, […] as “responders” (group A: primary cultures #3, #5, #6, #7, #11, #12, #13, #14, #15, #16) and nine as “non responders” (group B: primary cultures #1, #2, #4, #8, #9, #10, #17, #18)."}, "[2]": {"test_system": "medullary thyroid carcinoma primary cultures", "experiment": "Cell viability of MTC primary cultures (MTT)", "assay_type": "cell-based, human", "conditions": "10^−8 M, forty-eight hours", "method": "Primary cultured cells from 18 selected MTC samples were incubated in ninety six well plates for forty eight hours with each SSTR agonist at 10^−8 M. Control cells were treated with vehicle solution. Cell viability was measured by a colorimetric method among eight replicates from treated and untreated (control) primary cultured cells. […] Data are expressed as the mean±SE percent cell viability reduction vs. untreated control cells. *P<0.05, and **P<0.01 vs. control.\nas §1\nThe effects of the tested somatostatin analogs on medullary thyroid carcinoma primary culture cell viability were assessed with a Cell Proliferation Kit I MTT® (Roche Diagnostics GmbH, Mannheim, GERMANY) which employs a colorimetric method for determining the number of viable cells in proliferation assays. Primary cultured cells were plated in ninety-six multiwell plates (2×10^4 cells/well) and incubated for forty-eight hours in a medium supplemented with 10% fetal bovine serum in the presence or absence of each somatostatin analog at 10^−8M. Treatments were renewed after the first twenty-four hours of incubation.\nIn order to investigate the effects of somatostatin analogs on medullary thyroid carcinoma cell viability, an MTT assay was performed in primary cultures derived from the eighteen selected medullary thyroid carcinoma samples, treated with or without each somatostatin analog at […] for forty-eight hours. Percent cell viability reduction compared to a control in each primary culture under treatment with each somatostatin analog is reported in Table 6."}, "MTC": {"test_system": "MTC", "conditions": "cited from earlier work"}, "[3]": {"conditions": "MTC primary culture #1 (non responder)"}, "[4]": {"conditions": "MTC primary culture #2 (non responder)"}, "[5]": {"conditions": "MTC primary culture #3 (responder)"}, "[6]": {"conditions": "MTC primary culture #4 (non responder)"}, "[7]": {"conditions": "MTC primary culture #5 (responder)"}, "[8]": {"conditions": "MTC primary culture #6 (responder)"}, "[9]": {"conditions": "MTC primary culture #7 (responder)"}, "[10]": {"conditions": "MTC primary culture #8 (non responder)"}, "[11]": {"conditions": "MTC primary culture #9 (non responder)"}, "[12]": {"conditions": "MTC primary culture #10 (non responder)"}, "[13]": {"conditions": "MTC primary culture #11 (responder)"}, "[14]": {"conditions": "MTC primary culture #12 (responder)"}, "[15]": {"conditions": "MTC primary culture #13 (responder)"}, "[16]": {"conditions": "MTC primary culture #14 (responder)"}, "[17]": {"conditions": "MTC primary culture #15 (responder)"}, "[18]": {"conditions": "MTC primary culture #16 (responder)"}, "[19]": {"conditions": "MTC primary culture #17 (non responder)"}, "[20]": {"conditions": "MTC primary culture #18 (non responder)"}}, "data": [{"smiles": "CC[C@@H]1NC(=O)[C@H](CCCCN)NC(=O)[C@@H](Cc2c[nH]c3ccccc23)NC(=O)[C@H](Cc2ccc(O)cc2)NC(=O)[C@@H](NC(=O)[C@@H](Cc2ccccc2)NC(=O)CN2CCN(CCO)CC2)CSSC[C@@H](C(=O)N[C@H](C(N)=O)[C@@H](C)O)NC1=O", "note": "[4-(2-Hydroxyethyl)-1-piperazinylacetyl-D-Phe-c[Cys-Tyr-D-Trp-Lys-Abu-Cys]-Thr-NH2]", "values": [{"measurement": "Ki", "setting": "SSTR1", "result": 4.52, "unit": "µM"}, {"measurement": "Ki", "setting": "SSTR4", "result": 6.36, "unit": "µM"}]}, {"smiles": "CC(C)[C@@H]1NC(=O)[C@H](CCCCN)NC(=O)[C@@H](Cc2c[nH]c3ccccc23)NC(=O)[C@H](Cc2ccc(O)cc2)NC(=O)[C@@H](NC(=O)[C@H](N)Cc2ccc3ccccc3c2)CSSC[C@@H](C(=O)N[C@H](C(N)=O)[C@@H](C)O)NC1=O", "note": "[lanreotide, D-β-Nal-c[Cys-Tyr-D-Trp-Lys-Val-Cys]-Thr-NH2, reference compound]", "values": [{"measurement": "Ki", "setting": "SSTR1", "result": 2.13, "unit": "µM"}, {"measurement": "Ki", "setting": "SSTR3", "result": 0.098, "unit": "µM"}, {"measurement": "% CT secretion inhibition vs. control", "setting": "[1]; [3]", "result": "−5.2", "unit": "%"}, {"measurement": "% CT secretion inhibition vs. control", "setting": "[1]; [4]", "result": 21.7, "unit": "%"}, {"measurement": "% CT secretion inhibition vs. control", "setting": "[1]; [5]", "result": "−22.6", "unit": "%"}, {"measurement": "% CT secretion inhibition vs. control", "setting": "[1]; [6]", "result": 34.7, "unit": "%"}, {"measurement": "% CT secretion inhibition vs. control", "setting": "[1]; [7]", "result": "−19.0", "unit": "%"}, {"measurement": "% CT secretion inhibition vs. control", "setting": "[1]; [8]", "result": "−18.0", "unit": "%"}, {"measurement": "% CT secretion inhibition vs. control", "setting": "[1]; [9]", "result": "−44.6", "unit": "%"}, {"measurement": "% CT secretion inhibition vs. control", "setting": "[1]; [10]", "result": 14.7, "unit": "%"}, {"measurement": "% CT secretion inhibition vs. control", "setting": "[1]; [11]", "result": 9.8, "unit": "%"}, {"measurement": "% CT secretion inhibition vs. control", "setting": "[1]; [12]", "result": 22.9, "unit": "%"}, {"measurement": "% CT secretion inhibition vs. control", "setting": "[1]; [13]", "result": "−25.1", "unit": "%"}, {"measurement": "% CT secretion inhibition vs. control", "setting": "[1]; [14]", "result": "−20.6", "unit": "%"}, {"measurement": "% CT secretion inhibition vs. control", "setting": "[1]; [15]", "result": "−42.5", "unit": "%"}, {"measurement": "% CT secretion inhibition vs. control", "setting": "[1]; [16]", "result": "−19.8", "unit": "%"}, {"measurement": "% CT secretion inhibition vs. control", "setting": "[1]; [17]", "result": "−20.9", "unit": "%"}, {"measurement": "% CT secretion inhibition vs. control", "setting": "[1]; [18]", "result": "−34.3", "unit": "%"}, {"measurement": "% CT secretion inhibition vs. control", "setting": "[1]; [19]", "result": 8.5, "unit": "%"}, {"measurement": "% CT secretion inhibition vs. control", "setting": "[1]; [20]", "result": "−10.8", "unit": "%"}, {"measurement": "calcitonin secretion reduced / inhibited by", "setting": "[1]; group A (lanreotide responders) mean", "result": 27, "unit": "%"}, {"measurement": "calcitonin secretion, change vs. control (signed, negative = reduced)", "setting": "[1]; group A (lanreotide responsive) mean", "result": "−27", "unit": "%"}, {"measurement": "% cell viability reduction vs. control", "setting": "[2]; [3]", "result": "−6.1", "unit": "%"}, {"measurement": "% cell viability reduction vs. control", "setting": "[2]; [4]", "result": "−57.0", "unit": "%"}, {"measurement": "% cell viability reduction vs. control", "setting": "[2]; [5]", "result": 1.5, "unit": "%"}, {"measurement": "% cell viability reduction vs. control", "setting": "[2]; [6]", "result": "−25.8", "unit": "%"}, {"measurement": "% cell viability reduction vs. control", "setting": "[2]; [7]", "result": 13.4, "unit": "%"}, {"measurement": "% cell viability reduction vs. control", "setting": "[2]; [8]", "result": 9.7, "unit": "%"}, {"measurement": "% cell viability reduction vs. control", "setting": "[2]; [9]", "result": 54.4, "unit": "%"}, {"measurement": "% cell viability reduction vs. control", "setting": "[2]; [10]", "result": "−7.9", "unit": "%"}, {"measurement": "% cell viability reduction vs. control", "setting": "[2]; [11]", "result": "−8.6", "unit": "%"}, {"measurement": "% cell viability reduction vs. control", "setting": "[2]; [12]", "result": 7.0, "unit": "%"}, {"measurement": "% cell viability reduction vs. control", "setting": "[2]; [13]", "result": "−11.2", "unit": "%"}, {"measurement": "% cell viability reduction vs. control", "setting": "[2]; [14]", "result": 3.5, "unit": "%"}, {"measurement": "% cell viability reduction vs. control", "setting": "[2]; [15]", "result": 23.1, "unit": "%"}, {"measurement": "% cell viability reduction vs. control", "setting": "[2]; [16]", "result": 1.8, "unit": "%"}, {"measurement": "% cell viability reduction vs. control", "setting": "[2]; [17]", "result": "−8.3", "unit": "%"}, {"measurement": "% cell viability reduction vs. control", "setting": "[2]; [18]", "result": "−15.8", "unit": "%"}, {"measurement": "% cell viability reduction vs. control", "setting": "[2]; [19]", "result": "−9.7", "unit": "%"}, {"measurement": "% cell viability reduction vs. control", "setting": "[2]; [20]", "result": "−15.8", "unit": "%"}, {"measurement": "cell viability, change vs. control (signed, negative = reduced)", "setting": "[2]; group B (lanreotide non-responsive) mean", "result": "−14", "unit": "%"}, {"measurement": "suppressing calcitonin secretion", "setting": "MTC; MTC, commercially available somatostatin analogs", "result": "lack of efficacy"}, {"measurement": "reducing tumour size and/or increasing patient survival rate", "setting": "MTC; treatment of MTC patients", "result": "little effect"}]}]}
